Results taken from patent US20090298752A1, “APLIDINE TREATMENT OF CANCERS” (PHARMA MAR, S.A., priority 1999, published 2009).
Entries after “also recorded” stand apart in the source; their conditions may differ.

Key:
Prostate PC-3 = assay: sc hollow fibre (HF), prostate tumour cells, rat; format: in vivo; conditions: 0.70 mg/kg, 0.7 mg/kg
Procedure: Different model systems were evaluated to provide the basis for further clinical work. Selective antitumour activities were seen against two histologically different solid tumours: human gastric and prostate carcinomas. Potent in vitro activity to primary gastric tumour specimens or Hs746T gastric tumour cells is evident with IC30 values of 146 and 450 pM, respectively. […] activities were evaluated in nude rodents using sc implanted tumour fragments or hollow fibres (HF) containing tumour cells.
Follow-up studies necessitated using rats for iv infusions. With this variation, a 24 hr iv infusion schedule produced similar activities against HF gastric (20%) and HF prostate (31%) tumour cells. Cytotoxicity was also found using a 5 day iv infusion schedule against HF prostate tumour cells (33%).

B-RAF = assay: cDNA expression array in MOLT-4 cells; format: cell-based, human; conditions: for quantitative change in B-RAF expression: MOLT-4, 1 h treatment
Procedure: (§1) The early changes in gene expression induced by aplidine in MOLT-4 cells were evaluated by using cDNA expression arrays (Atlas Human Cancer, Clontech). MOLT-4 cells were treated for 1 hour with concentrations of aplidine which inhibit the growth by 50% and total RNA was isolated at 0, 1, 6 and 24 hours after drug wash out. Filters were hybridised with equal amount of 32P labelled cDNA. Analysis of the results was carried out using ATLAS IMAGE 1.0 software. Changes in gene expression greater than 2 fold were taken as significant changes in RNA expression and subsequently confirmed by PCR.
as §1, with “In the present study we have evaluated the early” for “The early”, “cells” for “cells were evaluated”, “of aplidien” for “of aplidine”, “isolated t” for “isolated at”, “equal amounts” for “equal amount”, “PCR. […] Whether the down-regulation of flt-1 is involved in the cytotoxic and antitumour effect of aplidine is under investigation at the moment.” for “PCR.”
(§2) The human leukaemia cell line MOLT-4 was used for these experiments MOLT-4 cells were treated for 1 hour with 20 nM of aplidine. Total RNA was extracted at the end of treatment and 6 and 24 hours after recovery in drug-free medium.
(§3) 5 μg of total RNA were retrotanscribed to cDNA in the presence of ^32P dATP. Equal amounts of radioactive probes were hybridised to Atlas Human Cancer Microarrays (Clontech). After washing, filter were exposed and the results analysed using the Atlas Image software. Only a gene expression difference greater than 2 fold between treated and untreated cells were taken into account. RT-PCR and northern analysis have been performed to confirm the changes in gene expression found with the microarrays.

DNA-PK = assay: cDNA expression array in MOLT-4 cells; format: cell-based, human; conditions: MOLT-4, 1 h treatment
Procedure: as §1
as §1, with “In the present study we have evaluated the early” for “The early”, “cells” for “cells were evaluated”, “of aplidien” for “of aplidine”, “isolated t” for “isolated at”, “equal amounts” for “equal amount”, “PCR. […] Whether the down-regulation of flt-1 is involved in the cytotoxic and antitumour effect of aplidine is under investigation at the moment.” for “PCR.”
as §2, §3

ETR = assay: cDNA expression array in MOLT-4 cells; format: cell-based, human
Procedure: as §1
as §1, with “In the present study we have evaluated the early” for “The early”, “cells” for “cells were evaluated”, “of aplidien” for “of aplidine”, “isolated t” for “isolated at”, “equal amounts” for “equal amount”, “PCR. […] Whether the down-regulation of flt-1 is involved in the cytotoxic and antitumour effect of aplidine is under investigation at the moment.” for “PCR.”
as §2, §3

FMS = assay: cDNA expression array in MOLT-4 cells; format: cell-based, human; conditions: for quantitative change in FMS expression: MOLT-4, 1 h treatment
Procedure: as §1
as §1, with “In the present study we have evaluated the early” for “The early”, “cells” for “cells were evaluated”, “of aplidien” for “of aplidine”, “isolated t” for “isolated at”, “equal amounts” for “equal amount”, “PCR. […] Whether the down-regulation of flt-1 is involved in the cytotoxic and antitumour effect of aplidine is under investigation at the moment.” for “PCR.”
as §2, §3

PLK-1 = assay: cDNA expression array in MOLT-4 cells; format: cell-based, human; conditions: MOLT-4, 1 h treatment
Procedure: as §1
as §1, with “In the present study we have evaluated the early” for “The early”, “cells” for “cells were evaluated”, “of aplidien” for “of aplidine”, “isolated t” for “isolated at”, “equal amounts” for “equal amount”, “PCR. […] Whether the down-regulation of flt-1 is involved in the cytotoxic and antitumour effect of aplidine is under investigation at the moment.” for “PCR.”
as §2, §3

VEGF = VEGF secretion from MOLT-4 cells (ELISA); format: cell-based, human
Procedure: Cells were treated for 1 h with 20 nM aplidine. VEGF secreted in the medium was measured by ELISA at the end of treatment and after 6 and 24 hours incubation in drug-free medium.

[1] = system: solid tumours and non-Hodgkin lymphoma; assay: Phase I, 24 h infusion every 2 weeks: antitumour activity; format: in vivo, human
Procedure: Aplidine is given as a 24 hour infusion every 2 weeks. The starting dose was 200 μg/m^2/d and dose escalation proceed including so far 400, 800, 1600, and 3200 μg/m^2/d. A total of 18 patients (M/F: 7/11, median age 52, OMS 0/1:10/8) have been entered. […] Among evaluable patients, toxicity consisted of mild grade I-II nausea/vomiting, grade I-II asthenia, and cramping occurring during or immediately after the infusion. No neuromuscular toxicity were reported at the evaluated doses. One patient with an advanced lung cancer and documented tumour progression at the dose of 1600 μg/m^2 developed a haemolytic anaemia and thrombocytopenia that was considered unlikely related to the study drug. […] An open 2-compartment model fits appropriately most plasma concentration profiles. […] The accrual is ongoing to determine the dose limiting toxicity and the dose to be recommended in phase II studies.
Aplidine was given to patients with solid tumour/NHL as a 24 hr infusion/q2w to 35 patients (median: age=51/ECOG=1) with solid tumour (32 pts) or NHL (3 pts). 23/35 patients were previously exposed to ≧3 previous lines of chemotherapy. Nine dose levels (200-7000 μg/m^2/w/q2w) and 65 cycles (120 infusions) were given. […] Toxicity consisted of G2-3 asthenia and emesis in 9-2 patients and 12-1 pts, respectively. G3 nausea/vomiting (≧5000 μg/m^2) was efficiently treated then prevented with 4HT3-regimens. […] At the dose of 5000 μg/m^2/w/q2w, 2 patients experienced transient muscle cramps with reversible G3 CPK-MM elevations. Among 9 patients treated at 6000 μg/m^2/w, 3 patients experienced an increase of CPK-MM and aldolase after the 3rd injection of aplidine. CPK elevations were G1-2 and not symptomatic in 2 patients but a G3 CPK elevation with G3 muscular pain and loss of muscle strength (DLT) was reported in 1 pt. This was reversible with no sequel. […] Ultrastructural electron microscopy indicated no morphological mitochondria alteration but a lost of the thick myosin filaments. At 7000 μg/m^2/q2w, 4 patients have been entered. […] Mechanistic hypothesis and preventive strategies against muscle toxicity are under evaluation.

[2] = system: CT-1, CT-2 and HT-29 cell lines; conditions: cited from earlier work
P388 leukaemia = conditions: mice; cited from earlier work
[3] = Phase I, 1 h weekly infusion x3 q4wk: toxicity and pharmacokinetics; format: in vivo, human
[4] = MOLT-4, 6 hours after recovery in drug-free medium

In the case of aplidine, the “Activity (% T/C.)” value (Prostate PC-3; 24 hr.iv inf.) is reported as 31 % T/C, the “Activity (% T/C.)” value (Prostate PC-3; 5 day, iv inf) is reported as 33 % T/C and the “quantitative change in B-RAF expression” value (B-RAF; 6 Hours) is reported as “+2.0 fold”. The “quantitative change in B-RAF expression” value (B-RAF; 24 Hours) was “+2.6 fold”, the “levels of B-RAF, in words” value (B-RAF; [4]) was “increase” and the “quantitative change in DNA-PK expression” value (DNA-PK; 6 Hours) was “+3.0 fold”. The “quantitative change in DNA-PK expression” value (DNA-PK; 24 Hours) was “+3.8 fold”, the “ETR levels, in words” value (ETR; MOLT-4, 20 nM 1 h, after 6 and 24 hours) was “returned to normal level” and the “expression of early response gene ETR, in words” value (ETR; MOLT-4, 20 nM 1 h, at the end of treatment) was “increased”. For the same substance, the “quantitative change in ETR expression” value (ETR; MOLT-4, 1 h treatment, 1 Hour) was “+2.7 fold”, the “quantitative change in FMS expression” value (FMS; 6 Hours) was “+2.7 fold” and the “quantitative change in FMS expression” value (FMS; 24 Hours) was “+2.1 fold”. For the same substance, the “levels of Fms, in words” value (FMS; [4]) was “increase”, the “quantitative change in PLK-1 expression” value (PLK-1; 6 Hours) was “+3.0 fold” and the “quantitative change in PLK-1 expression” value (PLK-1; 24 Hours) was “+4.4 fold”. For the same substance, the “intracellular VEGF” value (VEGF) was “increased intracellular accumulation of VEGF”, the “VEGF secretion, in words” value (VEGF; 1 h with 20 nM aplidine) was “strong reduction of VEGF secretion; also recorded: severely inhibit production; also recorded: Blocks VEGF Secretion” and the “concentration at which block of VEGF secretion is already observable” value (VEGF; concentration-dependent) was 5 nm. For the same substance, the “response, patient with non-Hodgkin lymphoma” value ([1]; Example 6) was “Clinical improvement”, the “Activity observed in NHL” value ([1]; Example 14) was 1/3 and the “Activity observed in molecular thyroid” value ([1]; Example 14) was 2/2. The “Activity observed in neuroendocrine cancer” value ([1]; Example 14) was 1 pt, the “Activity observed in renal” value ([1]; Example 14) was 1/5 and the “antitumour activity in NHL and renal carcinoma” value ([1]; Example 18) was “Antitumour activity has been also noted”. The cytotoxic activity [2] was “dose-dependent cytotoxic activity”, the “activity against implanted tumour” value (P388 leukaemia) was “active” and the “Alk. Phos. G3 (worst toxicity per patient)” value ([3]; 2700 mcg/m^2/wk x3, 8 patients, footnote DLT) was “(1)^(2)”. For the same substance, the “Transaminitis G3 (worst toxicity per patient)” value ([3]; 2700 mcg/m^2/wk x3, 8 patients, one with Hepatitis C, 2 reversible by day 8, 1 DLT) was 4 and the “Myalgia G2 (worst toxicity per patient)” value ([3]; 3600 mcg/m^2/wk x3, 2 patients) was 1.
